Experimental data as given in PubChem BioAssay AID1918946 (Molecular Pharmacology Branch, DTP, NCI, 2023).

Tested on: 885512-296-R-J2-PDC complex spheroid viability
Experiment: Anticancer human tumor 885512-296-R-J2-PDC patient-derived breast carcinoma cell line growth inhibition
Conditions: for IC50: curve of first compound; for viability, T/C: stronger effect = lower value
From the text: Multicellular complex tumor spheroid response to LSD1 Inhibitor Iadademstat in combination with a variety of drugs and investigational agents in selected tumor cell lines
The current study was undertaken to assess response to LSD1 inhibitors in combination with standard-of-care drugs and investigational agents in solid tumor complex spheroid models as well as in the K-562 leukemia. Complex spheroids include a stromal component modeled by human endothelial cells (HUVEC) and fibroblasts modeled by human mesenchymal stem cells (MSCs). The concentration ranges selected for each drug and investigational agent were based upon clinically achievable concentrations if the clinical Cmax of the agent was known.
Compounds. The drugs and investigational agents used in this study are listed on Table 1. All of the agents used, including staurosporine (NSC755774) and gemcitabine (NSC613327), were obtained from the Developmental Therapeutics Program, NCI. FDA-approved anticancer drugs are available from the NCI at http://dtp.nci.nih.gov/branches/dscb/oncology_drugset_explanation.html. Drugs and investigational agents were >95% pure by proton nuclear magnetic resonance (NMR) and liquid chromatography/mass spectrometry (LC/MS). Stock solutions were prepared at 400x in DMSO, stored at -70 degrees C, and diluted in fresh medium prior to their use. The final concentration of DMSO in cell culture wells never exceeded 0.25% (v/v). The FDA-approved anticancer drug set is available from the Developmental Therapeutics Program at https://dtp.cancer.gov/organization/dscb/obtaining/available_plates.htm. All drugs and investigational agents were tested over a range starting from a high concentration at or near the clinical Cmax and decreasing in half-log increments. If the clinical Cmax for an agent had not been determined, the highest concentration tested was 10 microM.
Cell Lines. The patient-derived cancer cell (PDC) lines: 292921-168-R-J2-PDC, K24384-001-R-PDC, and 521955-158-R2-J5-PDC pancreatic carcinomas, 556581-035-R-J1 ovarian carcinoma, 324938-238-R-J1-PDC, 855422-203-R-J1-PDC and 883617-216-R-J1-PDC urothelial bladder carcinomas, 743489-274-T-PDC renal cell carcinoma, 138582-R-J1 Merkel cell tumor, K60290-347-R-J1 and K57222-313-R-J1-PDC glioblastomas, 653999-131-R-J2-PDC, LG0703-F948-PDC, and 349418-098-R-PDC non-small cell lung carcinomas, 885512-296-R-J2-PDC, 171881-019-R-J1-PDC breast carcinomas and 186277-243-T-J2-PDC and 233499-124-R-J2-PDC colon carcinomas were obtained from the NCI Patient-Derived Models Repository (PDMR, https://pdmr.cancer.gov). The established cell lines NCI/ADR-RES (RRID:CVCL_14520 and OVCAR-5 (RRID:CVCL_1628) ovarian carcinomas, 786-O (RRID:CVCL_1051) and A498 (RRID:CVCL_A498) renal cell carcinoma, NCI-H211 (ATCC, cat. CRL-5824; RRID:CVCL_1529), NCI-H196 (ATCC, cat. CRL-5823, RRID:CVCL_1509), SW 1271 (ATCC, cat. CRL-2177, RRID:CVCL_1716) and NCI-H1876 (ATCC, cat. CRL-5902, RRID:CVCL_1503) small cell lung carcinomas, MDA-MB-231 (RRID:CVCL_0062) and MDA-MB-468 (RRID:CVCL_0419)breast carcinomas (10-12). Pooled donor human umbilical vein endothelial cells (HUVEC, Lonza, cat. CC-2519) and human mesenchymal stem cells (hMSC, Lonza, cat. PT-2501) were purchased from Lonza (Walkersville, MD).
Cell Culture. All cells were maintained in an incubator at 37 degrees C and 5% CO2 with 95% humidity. The PDC lines were cultured according to standard operating procedures established by the NCI PDMR (https://pdmr.cancer.gov). Briefly all PDCs were thawed and cultured in Matrigel-coated flasks prepared with a working solution of 1X Ham's F-12 nutrient mix, without supplementation (Invitrogen, Waltham, MA, cat. 11765054), 100 U/mL penicillin-streptomycin (Invitrogen, cat. 15140122), and 2.5% Matrigel (Corning Inc., Corning, NY, cat. 354248) for the first three passages. […]

[1] = second compound 0.1 µM, first compound 0.0316 µM
[2] = second compound 0.1 µM, first compound 0.1 µM
[3] = second compound 0.316 µM, first compound 0.0316 µM
[4] = second compound 0.316 µM, first compound 0.1 µM
[5] = second compound 1 µM, first compound 0.0316 µM
[6] = second compound 1 µM, first compound 0.1 µM
[7] = second compound 3.16 µM, first compound 0.0316 µM
[8] = second compound 3.16 µM, first compound 0.1 µM
[9] = second compound 10 µM, first compound 0.0316 µM
[10] = second compound 10 µM, first compound 0.1 µM
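Further: spheroids exposed to agents for 7 days before viability read.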

## CC(C)CC(NC(=O)C(Cc1ccccc1)NC(=O)c1cnccn1)B(O)O (stereo not given) + NC1CC1c1ccc(-c2cccc(O)c2)cc1
Second compound 0.1 µM
  IC50: < 0.316 nM
Second compound 0.316 µM
  IC50: < 0.316 nM
Second compound 1 µM
  IC50: < 0.316 nM
Second compound 3.16 µM
  IC50: < 0.316 nM
Second compound 10 µM
  IC50: < 0.316 nM
Second compound 0.1 µM, first compound 0.000316 µM
  viability, T/C: 18.7%
Second compound 0.1 µM, first compound 0.001 µM
  viability, T/C: 1.21%
Second compound 0.1 µM, first compound 0.00316 µM
  viability, T/C: 7.48%
Second compound 0.1 µM, first compound 0.01 µM
  viability, T/C: 0.02%
[1]
  viability, T/C: 0.02%
[2]
  viability, T/C: 0.09%
Second compound 0.316 µM, first compound 0.000316 µM
  viability, T/C: 19%
Second compound 0.316 µM, first compound 0.001 µM
  viability, T/C: 0.69%
Second compound 0.316 µM, first compound 0.00316 µM
  viability, T/C: 0.05%
Second compound 0.316 µM, first compound 0.01 µM
  viability, T/C: 0.01%
[3]
  viability, T/C: 0.01%
[4]
  viability, T/C: 0.08%
Second compound 1 µM, first compound 0.000316 µM
  viability, T/C: 18.5%
Second compound 1 µM, first compound 0.001 µM
  viability, T/C: 0.65%
Second compound 1 µM, first compound 0.00316 µM
  viability, T/C: 0.02%
Second compound 1 µM, first compound 0.01 µM
  viability, T/C: 0.01%
[5]
  viability, T/C: 0.01%
[6]
  viability, T/C: 0.09%
Second compound 3.16 µM, first compound 0.000316 µM
  viability, T/C: 15.5%
Second compound 3.16 µM, first compound 0.001 µM
  viability, T/C: 0.58%
Second compound 3.16 µM, first compound 0.00316 µM
  viability, T/C: 0.16%
Second compound 3.16 µM, first compound 0.01 µM
  viability, T/C: 0.01%
[7]
  viability, T/C: 0.02%
[8]
  viability, T/C: 0.1%
Second compound 10 µM, first compound 0.000316 µM
  viability, T/C: 11.2%
Second compound 10 µM, first compound 0.001 µM
  viability, T/C: 0.27%
Second compound 10 µM, first compound 0.00316 µM
  viability, T/C: 0.11%
Second compound 10 µM, first compound 0.01 µM
  viability, T/C: 0.12%
[9]
  viability, T/C: 0.14%
[10]
  viability, T/C: 0.14%

## CC1COCCN1c1cc(C2(S(C)(=N)=O)CC2)nc(-c2ccnc3[nH]ccc23)n1 (stereo not given) + NC1CCC(NC2CC2c2ccccc2)CC1
Second compound 0.1 µM
  IC50: 166 nM
Second compound 0.316 µM
  IC50: 155 nM
Second compound 1 µM
  IC50: 166 nM
Second compound 3.16 µM
  IC50: 119 nM
Second compound 10 µM
  IC50: 124 nM
[1]
  viability, T/C: 98.8%
[2]
  viability, T/C: 77.3%
Second compound 0.1 µM, first compound 0.316 µM
  viability, T/C: 15.1%
Second compound 0.1 µM, first compound 1 µM
  viability, T/C: 7.78%
Second compound 0.1 µM, first compound 3.16 µM
  viability, T/C: 9.98%
Second compound 0.1 µM, first compound 10 µM
  viability, T/C: 4.57%
[3]
  viability, T/C: 94.7%
[4]
  viability, T/C: 71.4%
Second compound 0.316 µM, first compound 0.316 µM
  viability, T/C: 15.3%
Second compound 0.316 µM, first compound 1 µM
  viability, T/C: 4.43%
Second compound 0.316 µM, first compound 3.16 µM
  viability, T/C: 4.53%
Second compound 0.316 µM, first compound 10 µM
  viability, T/C: 7.27%
[5]
  viability, T/C: 98.8%
[6]
  viability, T/C: 75.8%
Second compound 1 µM, first compound 0.316 µM
  viability, T/C: 17.4%
Second compound 1 µM, first compound 1 µM
  viability, T/C: 5.72%
Second compound 1 µM, first compound 3.16 µM
  viability, T/C: 7%
Second compound 1 µM, first compound 10 µM
  viability, T/C: 4.61%
[7]
  viability, T/C: 108%
[8]
  viability, T/C: 56.5%
Second compound 3.16 µM, first compound 0.316 µM
  viability, T/C: 13.4%
Second compound 3.16 µM, first compound 1 µM
  viability, T/C: 5.73%
Second compound 3.16 µM, first compound 3.16 µM
  viability, T/C: 4.8%
Second compound 3.16 µM, first compound 10 µM
  viability, T/C: 4.21%
[9]
  viability, T/C: 84.5%
[10]
  viability, T/C: 59.1%
Second compound 10 µM, first compound 0.316 µM
  viability, T/C: 9.91%
Second compound 10 µM, first compound 1 µM
  viability, T/C: 3.2%
Second compound 10 µM, first compound 3.16 µM
  viability, T/C: 3.14%
Second compound 10 µM, first compound 10 µM
  viability, T/C: 1.66%

## NS(=O)(=O)OCC1CC(n2ccc3c(NC4CCc5ccccc54)ncnc32)CC1O (stereo not given) + NC1CC1c1ccc(-c2cccc(O)c2)cc1
Second compound 0.1 µM
  IC50: < 9.49 nM
Second compound 0.316 µM
  IC50: < 9.49 nM
Second compound 1 µM
  IC50: < 9.49 nM
Second compound 3.16 µM
  IC50: < 9.49 nM
Second compound 10 µM
  IC50: < 9.49 nM
Second compound 0.1 µM, first compound 0.00949 µM
  viability, T/C: 15.9%
Second compound 0.1 µM, first compound 0.03 µM
  viability, T/C: 6.61%
Second compound 0.1 µM, first compound 0.0949 µM
  viability, T/C: 2.38%
Second compound 0.1 µM, first compound 0.3 µM
  viability, T/C: 1.74%
Second compound 0.1 µM, first compound 0.949 µM
  viability, T/C: 1.42%
Second compound 0.1 µM, first compound 3 µM
  viability, T/C: 1.17%
Second compound 0.316 µM, first compound 0.00949 µM
  viability, T/C: 13.4%
Second compound 0.316 µM, first compound 0.03 µM
  viability, T/C: 5.58%
Second compound 0.316 µM, first compound 0.0949 µM
  viability, T/C: 2.27%
Second compound 0.316 µM, first compound 0.3 µM
  viability, T/C: 1.48%
Second compound 0.316 µM, first compound 0.949 µM
  viability, T/C: 1.54%
Second compound 0.316 µM, first compound 3 µM
  viability, T/C: 1.19%
Second compound 1 µM, first compound 0.00949 µM
  viability, T/C: 11.8%
Second compound 1 µM, first compound 0.03 µM
  viability, T/C: 5.8%
Second compound 1 µM, first compound 0.0949 µM
  viability, T/C: 2.84%
Second compound 1 µM, first compound 0.3 µM
  viability, T/C: 1.53%
Second compound 1 µM, first compound 0.949 µM
  viability, T/C: 1.65%
Second compound 1 µM, first compound 3 µM
  viability, T/C: 1.49%
Second compound 3.16 µM, first compound 0.00949 µM
  viability, T/C: 10.9%
Second compound 3.16 µM, first compound 0.03 µM
  viability, T/C: 4.37%
Second compound 3.16 µM, first compound 0.0949 µM
  viability, T/C: 2.28%
Second compound 3.16 µM, first compound 0.3 µM
  viability, T/C: 1.46%
Second compound 3.16 µM, first compound 0.949 µM
  viability, T/C: 1.66%
Second compound 3.16 µM, first compound 3 µM
  viability, T/C: 1.1%
Second compound 10 µM, first compound 0.00949 µM
  viability, T/C: 8.81%
Second compound 10 µM, first compound 0.03 µM
  viability, T/C: 4.76%
Second compound 10 µM, first compound 0.0949 µM
  viability, T/C: 1.87%
Second compound 10 µM, first compound 0.3 µM
  viability, T/C: 1.89%
Second compound 10 µM, first compound 0.949 µM
  viability, T/C: 0.97%
Second compound 10 µM, first compound 3 µM
  viability, T/C: 0.66%
